Source: patent US20170340648A1, “Pharmaceutical Compositions Affecting Bioenergetic Processes in a Eukaryotic Biological System and Methods of Treatment” (JOYCE BIOTECH CORP., priority 2016, published 2017)
“Also recorded” adds a separate entry of the source.

Experiments:
[1] = rat, in vivo; cited from earlier work
C2C12 murine myoblasts = assay type: cell-based
Experimental: In the experiment, immortalized murine C2C12 myoblast cells were exposed to various pre-assay growth conditions prior to being seeded into a Seahorse XF24 Extracellular Flux Analyzer cell culture plate. The basal oxygen consumption (OCR) and extracellular acidification (ECAR) rates were measured to establish baseline metabolic rates for each experimental culture condition. The cells were then metabolically perturbed by the successive addition of three different compounds that shift the bioenergetic profile of the cell.
The first compound added following the collection of baseline metabolic data was oligomycin.
The second agent injected, carbonyl cyanide-p-trifluoromethoxyphenylhydrazone (FCCP), is an ionophore that is a mobile ion carrier.
Rotenone, a Complex I inhibitor, is the third agent injected in sequence, it prevents the transfer of electrons from the Fe—S center in Complex I to ubiquinone (Coenzyme Q).
Rotenone exposure inhibits mitochondrial respiration and enables both the mitochondrial and non-mitochondrial fractions contributing to respiration to be calculated.
Statistical analysis was conducted via two-tailed Mann-Whitney U test of variance. U and P values were calculated using algorithms supplied by the Meta Numerics and ALGLIB statistical libraries. During calculations, when the value of N (the number of scores) was equal to or greater than 10, it was assumed that the sampling distribution was approximately normal, and a Z-ratio was also employed to calculate the value of P. The threshold for significance was set at P≦to 0.05 (Table 27A1 to Table 27F2).
C2C12 murine myoblast cells were placed into pre-assay growth condition categories and cultured for 24 hours.
CSC12 murine myoblast cells were seeded into a Seahorse XF24 24 well culture plate at a density of 10,000 cells/well in 100 microliters of Growth Medium.
The seeded XF24 culture plates were placed into a 37 degree Centigrade incubator at 10% CO2 for 24 hours. […]

glucocorticoid receptors = details: cultured cells; cited from earlier work

For `O=CC[C@@H](O)[C@H](O)[C@H](O)CO` [2-Deoxy-d-Glucose], the cardiac toxicity [1] is listed as “cardiotoxicity”.

With `C=C(C)[C@H]1Cc2c(ccc3c2O[C@@H]2COc4cc(OC)c(OC)cc4[C@@H]2C3=O)O1` [Rotenone] the “oxygen consumption rate (OCR) relative to Control condition” value (C2C12 murine myoblasts; 24 h pre-assay incubation for compositions, Rotenone 2.0 μM injected, basal and FCCP conditions) was “significantly reduced; also recorded: decreased” and the “anaerobic metabolic activity as indicated by extracellular acidification rate (ECAR) relative to untreated control” value (C2C12 murine myoblasts; basal, Met/Mife 25 uM/50 uM (Table 27A1), MET/KET 1 mM/50 uM (Table 27F3), Rotenone 2.0 μM) was “increased”.

For `CC(=O)N1CCN(c2ccc(OCC3COC(Cn4ccnc4)(c4ccc(Cl)cc4Cl)O3)cc2)CC1` (stereo not shown) [ketoconazole], the glucocorticoid receptor activity (glucocorticoid receptors) is given as “antagonist”.
